The target in series [1] is T1, cardiac histamine H2 receptor (Cavia porcellus, UniProt P47747).
T1 construct: isolated right atrium of the Guinea pig; from tissue; host or cells: isolated guinea pig right atrium
The settings on record: concentration inhibiting by 50% the increase in frequency induced by histamine; isolated right atrium of the Guinea pig; CM 57755 as dihydrochloride.

The target of series [2] is T2, gastric histamine H2 receptor (Cavia porcellus, UniProt P47747).
T2 construct: isolated stomach mucous membrane of the Guinea pig; from tissue; host or cells: isolated guinea pig stomach mucous membrane
Details: species or system guinea pig. The settings on record: for IC50: concentration inhibiting by 50% the secretion induced by histamine, isolated stomach mucous membrane of the Guinea pig, CM 57755 as dihydrochloride; for IC50 m/IC50 o: ratio gastric IC50 / cardiac IC50.

The test system of series [3] is gastric histamine H2 receptors. As to the kind of experiment: antisecretory activity: antagonism to the hypersecretion provoked by histamine in the rat (Ghosh and Schild). Format: in vivo. The settings on record: intravenous route, histamine infusion equivalent to 15 mcmol/kg/hour. The text has this:
The antagonistic activity of the products of the present invention towards the gastric histamine H2 receptors was confirmed in the test of the antisecretory activity based on the antagonism to the hypersecretion provoked by histamine in the rat according to the method of Ghosh and Schild (Brit. J. Pharmacol.1958; 13, 54). According to this test, a gastric acid hypersecretion is induced by intravenous infusion of a submaximal dose equivalent to 15 mcmol/kg/hour and the gastric secretion is measured by perfusion of a physiological solution at a constant speed in the stomach of the animal.

For series [4], the system named is hypersecretion provoked by the dimaprit. As to the kind of experiment: antisecretory activity in the cat having a gastric fistula, dimaprit as hypersecretor (Emas et al.). Format: in vivo. The settings on record: dimaprit 640 mcg/kg/hour. How it is done:
The antisecretory activity of the products of the present invention was assessed in the cat having a gastric fistula according to the method of Emas et al.(Gastroenterology, 1969; 39, 771) using, as hypersecretor, dimaprit at the dose of 640 mcg/kg/hour.

Series [5] can be described thus: acute toxicity (LD50) in the rat. The settings on record: in vivo, intravenous route.
In another series the test system is cardiac H2 receptors. The settings on record: treatment of ulcerous disease; Clinica Terapeutica, 1981, 96, 81-91; cited from earlier work.

We go through three compounds from patent US4474790A, “Thioalkylamide of nicotinic acid 1-oxide, its salts, and pharmaceutical compositions” (SANOFI, priority 1981, dated 1984).

T2 sequence (P47747 whole entry): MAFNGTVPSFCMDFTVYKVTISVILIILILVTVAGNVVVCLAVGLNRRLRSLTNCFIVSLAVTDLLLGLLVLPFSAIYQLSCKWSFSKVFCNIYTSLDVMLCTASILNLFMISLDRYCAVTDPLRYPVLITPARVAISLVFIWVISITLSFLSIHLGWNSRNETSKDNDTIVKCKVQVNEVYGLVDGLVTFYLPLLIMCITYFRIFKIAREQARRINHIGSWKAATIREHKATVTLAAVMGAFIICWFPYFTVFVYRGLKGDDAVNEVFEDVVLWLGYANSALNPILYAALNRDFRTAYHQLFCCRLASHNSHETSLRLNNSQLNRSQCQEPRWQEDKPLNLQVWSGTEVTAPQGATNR
T1 sequence (P47747 whole entry): as above

A word on the IC50: it is the midpoint of a concentration-inhibition curve. Low values mean greater potency in that assay, high ones weaker potency in that assay. In series [1], `CNC(=C[N+](=O)[O-])NCCSCc1ccc(CN(C)C)o1` [ranitidine, reference compound] registered an IC50 of 86 nM. In series [2], the IC50 was 650 nM and the “IC50 m/IC50 o” value amounted to 7.6.
By LD50 is commonly meant the dose expected to kill half of the subjects tested. The low end stands for a more toxic substance, the high end for a less toxic substance. For the compound `CN(C)Cc1ccc(CSCCNC(=O)c2ccc[n+]([O-])c2)o1.Cl.Cl` [CM 57755, N-[2-(5-dimethylaminomethylfuran-2-ylmethylthio)ethyl]-3-pyridinecarboxamide 1-oxide dihydrochloride], the results for the IC50 in series [1] and in series [2] were 4300 nM and 9200 nM, respectively. Besides, the “affinity for the gastric H2 receptors versus the cardiac H2 receptors” value in series [2] (conclusion from the IC50 m/IC50 o ratio) is reported as “greater affinity for the gastric H2 receptors than for the cardiac H2 receptors”. Moreover, in series [2] (conclusion from the IC50 m/IC50 o ratio, relative to the reference compounds), the “selectivity of antagonising gastric hypersecretion versus the positive chronotropic action provoked by histamine” value was “capable of antagonising gastric hypersecretion more selectively than the positive chronotropic action provoked by histamine”. Moreover, in series [2], the “IC50 m/IC50 o” value turned out to be 2.13. Also, in series [3], the “dose inhibiting by 50% the hypersecretion provoked by histamine” value is listed as 0.9 mg/kg. Also, the “duration of action after the suspension of the treatment” value in series [4] was “long duration of action after the suspension of the treatment”. Also, the “activity compared with that of cimetidine” value in series [4] (on molar basis) is recorded as “comparable, on molar basis, to that of the cimetidine”. For the same compound, the “antagonism of the hypersecretion provoked by the dimaprit” value in series [4] (venous perfusion and intragastric route) is “antagonises in dose-dependent manner”. Further, the LD50 in series [5] was 300 mg/kg.
Take `CNC(=NC#N)NCCSCc1nc[nH]c1C` [cimetidine, 2-cyano-1-methyl-3-[2[(5-methylimidazol-4-yl)methylthio]ethyl]guanidine, reference compound]: the “duration of action after the suspension of the treatment” value in series [4] was “more transient”. Also, in the series with cardiac H2 receptors, the “secondary effects (block of the cardiac H2 receptors may be the cause)” value was “bradycardia and of asystolia”.
